# Source: PubChem BioAssay (NCI)
#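 Assay format: 96-well plates, 48-hour exposure. TGI marks complete inhibition of growth.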
# Legend:
# Experiment in all cases: growth of human tumour cells (NCI), 48 h
# 786-0 renal = test system: 786-0 renal
# A498 renal = test system: A498 renal
# A549 NSCLC = test system: A549 NSCLC
# ACHN renal = test system: ACHN renal
# BT-549 breast = test system: BT-549 breast
# CAKI-1 renal = test system: CAKI-1 renal
# CCRF-CEM leukemia = test system: CCRF-CEM leukemia
# COLO 205 colon = test system: COLO 205 colon
# DU-145 prostate = test system: DU-145 prostate
# EKVX NSCLC = test system: EKVX NSCLC
# HCC-2998 colon = test system: HCC-2998 colon
# HCT-116 colon = test system: HCT-116 colon
# HCT-15 colon = test system: HCT-15 colon
# HL-60(TB) leukemia = test system: HL-60(TB) leukemia
# HOP-62 NSCLC = test system: HOP-62 NSCLC
# HOP-92 NSCLC = test system: HOP-92 NSCLC
# HS 578T breast = test system: HS 578T breast
# HT29 colon = test system: HT29 colon
# IGROV1 ovarian = test system: IGROV1 ovarian
# K-562 leukemia = test system: K-562 leukemia
# KM12 colon = test system: KM12 colon
# LOX IMVI melanoma = test system: LOX IMVI melanoma
# M14 melanoma = test system: M14 melanoma
# MALME-3M melanoma = test system: MALME-3M melanoma
# MCF7 breast = test system: MCF7 breast
# MDA-MB-231 breast = test system: MDA-MB-231 breast
# MDA-MB-435 = test system: MDA-MB-435
# MDA-N = test system: MDA-N
# MOLT-4 leukemia = test system: MOLT-4 leukemia
# NCI-H226 lung = test system: NCI-H226 lung
# NCI-H23 lung = test system: NCI-H23 lung
# NCI-H460 lung = test system: NCI-H460 lung
# NCI-H522 lung = test system: NCI-H522 lung
# NCI/ADR-RES ovarian = test system: NCI/ADR-RES ovarian
# OVCAR-3 ovarian = test system: OVCAR-3 ovarian
# OVCAR-4 ovarian = test system: OVCAR-4 ovarian
# OVCAR-5 ovarian = test system: OVCAR-5 ovarian
# OVCAR-8 ovarian = test system: OVCAR-8 ovarian
# PC-3 prostate = test system: PC-3 prostate
# RPMI-8226 leukemia = test system: RPMI-8226 leukemia
# RXF 393 renal = test system: RXF 393 renal
# SF-268 CNS = test system: SF-268 CNS
# SF-295 CNS = test system: SF-295 CNS
# SF-539 CNS = test system: SF-539 CNS
# SK-MEL-2 melanoma = test system: SK-MEL-2 melanoma
# SK-MEL-28 melanoma = test system: SK-MEL-28 melanoma
# SK-MEL-5 melanoma = test system: SK-MEL-5 melanoma
# SK-OV-3 ovarian = test system: SK-OV-3 ovarian
# SN12C renal = test system: SN12C renal
# SNB-19 CNS = test system: SNB-19 CNS
# SNB-75 CNS = test system: SNB-75 CNS
# SW-620 colon = test system: SW-620 colon
# T-47D breast = test system: T-47D breast
# TK-10 renal = test system: TK-10 renal
# U251 CNS = test system: U251 CNS
# UACC-257 melanoma = test system: UACC-257 melanoma
# UACC-62 melanoma = test system: UACC-62 melanoma
# UO-31 renal = test system: UO-31 renal
# SR leukemia = test system: SR leukemia
smiles,measurement,setting,value
O=C(N/C(=C\c1ccccc1)C1Nc2ccccc2C(=O)O1)c1ccccc1 (stereo unspecified),TGI,786-0 renal,59 µM
same,TGI,A498 renal,> 100 µM
same,TGI,A549 NSCLC,> 100 µM
same,TGI,ACHN renal,> 100 µM
same,TGI,BT-549 breast,62.2 µM
same,TGI,CAKI-1 renal,> 100 µM
same,TGI,CCRF-CEM leukemia,46.5 µM
same,TGI,COLO 205 colon,80.9 µM
same,TGI,DU-145 prostate,> 100 µM
same,TGI,EKVX NSCLC,> 100 µM
same,TGI,HCC-2998 colon,38.6 µM
same,TGI,HCT-116 colon,36.8 µM
same,TGI,HCT-15 colon,> 100 µM
same,TGI,HL-60(TB) leukemia,36.1 µM
same,TGI,HOP-62 NSCLC,61.6 µM
same,TGI,HOP-92 NSCLC,> 100 µM
same,TGI,HS 578T breast,99.7 µM
same,TGI,HT29 colon,> 100 µM
same,TGI,IGROV1 ovarian,> 100 µM
same,TGI,K-562 leukemia,51.9 µM
same,TGI,KM12 colon,31.2 µM
same,TGI,LOX IMVI melanoma,36.1 µM
same,TGI,M14 melanoma,52.1 µM
same,TGI,MALME-3M melanoma,45.6 µM
same,TGI,MCF7 breast,> 100 µM
same,TGI,MDA-MB-231 breast,> 100 µM
same,TGI,MDA-MB-435,> 100 µM
same,TGI,MDA-N,56.6 µM
same,TGI,MOLT-4 leukemia,45.1 µM
same,TGI,NCI-H226 lung,> 100 µM
same,TGI,NCI-H23 lung,> 100 µM
same,TGI,NCI-H460 lung,35.5 µM
same,TGI,NCI-H522 lung,33.5 µM
same,TGI,NCI/ADR-RES ovarian,70.9 µM
same,TGI,OVCAR-3 ovarian,96.7 µM
same,TGI,OVCAR-4 ovarian,> 100 µM
same,TGI,OVCAR-5 ovarian,> 100 µM
same,TGI,OVCAR-8 ovarian,51.1 µM
same,TGI,PC-3 prostate,> 100 µM
same,TGI,RPMI-8226 leukemia,63.2 µM
same,TGI,RXF 393 renal,63 µM
same,TGI,SF-268 CNS,> 100 µM
same,TGI,SF-295 CNS,> 100 µM
same,TGI,SF-539 CNS,43.7 µM
same,TGI,SK-MEL-2 melanoma,62 µM
same,TGI,SK-MEL-28 melanoma,53.2 µM
same,TGI,SK-MEL-5 melanoma,34.7 µM
same,TGI,SK-OV-3 ovarian,> 100 µM
same,TGI,SN12C renal,84.6 µM
same,TGI,SNB-19 CNS,> 100 µM
same,TGI,SNB-75 CNS,> 100 µM
same,TGI,SW-620 colon,59.6 µM
same,TGI,T-47D breast,> 100 µM
same,TGI,TK-10 renal,> 100 µM
same,TGI,U251 CNS,51.2 µM
same,TGI,UACC-257 melanoma,58.4 µM
same,TGI,UACC-62 melanoma,> 100 µM
same,TGI,UO-31 renal,44.2 µM
O=C1OC(c2ccccc2)N/C1=C\c1ccc2c(c1)OCO2 (stereo unspecified),TGI,786-0 renal,> 100 µM
same,TGI,A549 NSCLC,> 100 µM
same,TGI,ACHN renal,> 100 µM
same,TGI,BT-549 breast,> 100 µM
same,TGI,CAKI-1 renal,> 100 µM
same,TGI,CCRF-CEM leukemia,99.6 µM
same,TGI,COLO 205 colon,> 100 µM
same,TGI,DU-145 prostate,> 100 µM
same,TGI,EKVX NSCLC,> 100 µM
same,TGI,HCC-2998 colon,> 100 µM
same,TGI,HCT-116 colon,> 100 µM
same,TGI,HCT-15 colon,> 100 µM
same,TGI,HL-60(TB) leukemia,0.684 µM
same,TGI,HOP-62 NSCLC,> 100 µM
same,TGI,HOP-92 NSCLC,> 100 µM
same,TGI,HS 578T breast,> 100 µM
same,TGI,HT29 colon,> 100 µM
same,TGI,IGROV1 ovarian,> 100 µM
same,TGI,K-562 leukemia,> 100 µM
same,TGI,KM12 colon,> 95.5 µM
same,TGI,LOX IMVI melanoma,> 100 µM
same,TGI,M14 melanoma,> 100 µM
same,TGI,MCF7 breast,> 100 µM
same,TGI,MDA-MB-231 breast,> 100 µM
same,TGI,MDA-MB-435,> 100 µM
same,TGI,MDA-N,> 100 µM
same,TGI,MOLT-4 leukemia,> 100 µM
same,TGI,NCI-H226 lung,> 100 µM
same,TGI,NCI-H23 lung,> 100 µM
same,TGI,NCI-H460 lung,> 100 µM
same,TGI,NCI-H522 lung,> 100 µM
same,TGI,NCI/ADR-RES ovarian,> 100 µM
same,TGI,OVCAR-3 ovarian,> 100 µM
same,TGI,OVCAR-4 ovarian,> 88 µM
same,TGI,OVCAR-5 ovarian,> 100 µM
same,TGI,OVCAR-8 ovarian,> 100 µM
same,TGI,PC-3 prostate,> 100 µM
same,TGI,RPMI-8226 leukemia,59.9 µM
same,TGI,RXF 393 renal,> 100 µM
same,TGI,SF-268 CNS,> 100 µM
same,TGI,SF-295 CNS,> 100 µM
same,TGI,SF-539 CNS,> 31.6 µM
same,TGI,SK-MEL-2 melanoma,> 100 µM
same,TGI,SK-MEL-28 melanoma,> 100 µM
same,TGI,SK-MEL-5 melanoma,> 100 µM
same,TGI,SK-OV-3 ovarian,> 100 µM
same,TGI,SN12C renal,> 100 µM
same,TGI,SNB-19 CNS,> 100 µM
same,TGI,SNB-75 CNS,> 100 µM
same,TGI,SR leukemia,63.9 µM
same,TGI,SW-620 colon,> 100 µM
same,TGI,T-47D breast,> 100 µM
same,TGI,TK-10 renal,> 100 µM
same,TGI,U251 CNS,> 100 µM
same,TGI,UACC-257 melanoma,> 100 µM
same,TGI,UACC-62 melanoma,> 100 µM
same,TGI,UO-31 renal,> 100 µM
CC1(C)OC(=S)N(c2ccccc2)C12C=Cc1cc3ccccc3cc1O2 (stereo unspecified),TGI,786-0 renal,> 100 µM
same,TGI,A498 renal,> 100 µM
same,TGI,A549 NSCLC,> 100 µM
same,TGI,ACHN renal,> 100 µM
same,TGI,BT-549 breast,> 100 µM
same,TGI,CAKI-1 renal,> 100 µM
same,TGI,CCRF-CEM leukemia,> 100 µM
same,TGI,COLO 205 colon,> 100 µM
same,TGI,DU-145 prostate,> 100 µM
same,TGI,EKVX NSCLC,> 100 µM
same,TGI,HCC-2998 colon,> 100 µM
same,TGI,HCT-116 colon,> 100 µM
same,TGI,HCT-15 colon,> 100 µM
same,TGI,HL-60(TB) leukemia,> 100 µM
same,TGI,HOP-62 NSCLC,> 100 µM
same,TGI,HOP-92 NSCLC,> 100 µM
same,TGI,HS 578T breast,> 100 µM
same,TGI,HT29 colon,> 100 µM
same,TGI,IGROV1 ovarian,> 100 µM
same,TGI,K-562 leukemia,> 100 µM
same,TGI,KM12 colon,> 100 µM
same,TGI,LOX IMVI melanoma,> 100 µM
same,TGI,M14 melanoma,> 100 µM
same,TGI,MCF7 breast,> 100 µM
same,TGI,MDA-MB-231 breast,> 100 µM
same,TGI,MDA-MB-435,> 100 µM
same,TGI,MDA-N,> 100 µM
same,TGI,MOLT-4 leukemia,> 100 µM
same,TGI,NCI-H226 lung,> 100 µM
same,TGI,NCI-H23 lung,> 100 µM
same,TGI,NCI-H460 lung,> 100 µM
same,TGI,NCI/ADR-RES ovarian,> 100 µM
same,TGI,OVCAR-3 ovarian,> 100 µM
same,TGI,OVCAR-4 ovarian,> 100 µM
same,TGI,OVCAR-5 ovarian,> 100 µM
same,TGI,OVCAR-8 ovarian,> 100 µM
same,TGI,PC-3 prostate,> 100 µM
same,TGI,RPMI-8226 leukemia,> 100 µM
same,TGI,RXF 393 renal,> 100 µM
same,TGI,SF-268 CNS,> 100 µM
same,TGI,SF-295 CNS,> 100 µM
same,TGI,SK-MEL-2 melanoma,> 100 µM
same,TGI,SK-MEL-28 melanoma,> 100 µM
same,TGI,SK-MEL-5 melanoma,> 100 µM
same,TGI,SK-OV-3 ovarian,> 100 µM
same,TGI,SN12C renal,> 100 µM
same,TGI,SNB-19 CNS,> 100 µM
same,TGI,SNB-75 CNS,> 100 µM
same,TGI,SR leukemia,> 100 µM
same,TGI,SW-620 colon,> 100 µM
same,TGI,T-47D breast,> 100 µM
same,TGI,TK-10 renal,> 100 µM
same,TGI,U251 CNS,> 100 µM
same,TGI,UACC-257 melanoma,> 100 µM
same,TGI,UACC-62 melanoma,> 100 µM
same,TGI,UO-31 renal,> 100 µM
